From patent US20080045529A1, “Use Of Thienopyrimidines” (MERCK PATENT GMBH, priority 2003, published 2008)
pIC50: −log10 of the molar value.

What was measured:
RAF = test: Inhibition of RAF; format: biochemical
TIE-2 = TIE-2 (Homo sapiens, UniProt Q02763); test: Tie-2 kinase flashplate assay (phosphorylation of poly(Glu, Tyr) with 33P-ATP); format: biochemical; conditions: read-out: Inhibition of TIE-2 IC50
Experimental: The TIE-2 tests can be carried out, for example, analogously to the methods indicated in WO 02/44156.
The assay determines the inhibiting activity of the substances to be tested in the phosphorylation of the substrate poly(Glu, Tyr) by Tie-2 kinase in the presence of radioactive ^33P-ATP. The phosphorylated substrate binds to the surface of a “flashplate” microtitre plate during the incubation time. After removal of the reaction mixture, the microtitre plate is washed a number of times and the radioactivity on its surface is subsequently measured. An inhibiting effect of the substances to be measured results in lower radioactivity compared with an undisturbed enzymatic reaction.

Sequence of TIE-2 (Q02763 23-1124, species assumed): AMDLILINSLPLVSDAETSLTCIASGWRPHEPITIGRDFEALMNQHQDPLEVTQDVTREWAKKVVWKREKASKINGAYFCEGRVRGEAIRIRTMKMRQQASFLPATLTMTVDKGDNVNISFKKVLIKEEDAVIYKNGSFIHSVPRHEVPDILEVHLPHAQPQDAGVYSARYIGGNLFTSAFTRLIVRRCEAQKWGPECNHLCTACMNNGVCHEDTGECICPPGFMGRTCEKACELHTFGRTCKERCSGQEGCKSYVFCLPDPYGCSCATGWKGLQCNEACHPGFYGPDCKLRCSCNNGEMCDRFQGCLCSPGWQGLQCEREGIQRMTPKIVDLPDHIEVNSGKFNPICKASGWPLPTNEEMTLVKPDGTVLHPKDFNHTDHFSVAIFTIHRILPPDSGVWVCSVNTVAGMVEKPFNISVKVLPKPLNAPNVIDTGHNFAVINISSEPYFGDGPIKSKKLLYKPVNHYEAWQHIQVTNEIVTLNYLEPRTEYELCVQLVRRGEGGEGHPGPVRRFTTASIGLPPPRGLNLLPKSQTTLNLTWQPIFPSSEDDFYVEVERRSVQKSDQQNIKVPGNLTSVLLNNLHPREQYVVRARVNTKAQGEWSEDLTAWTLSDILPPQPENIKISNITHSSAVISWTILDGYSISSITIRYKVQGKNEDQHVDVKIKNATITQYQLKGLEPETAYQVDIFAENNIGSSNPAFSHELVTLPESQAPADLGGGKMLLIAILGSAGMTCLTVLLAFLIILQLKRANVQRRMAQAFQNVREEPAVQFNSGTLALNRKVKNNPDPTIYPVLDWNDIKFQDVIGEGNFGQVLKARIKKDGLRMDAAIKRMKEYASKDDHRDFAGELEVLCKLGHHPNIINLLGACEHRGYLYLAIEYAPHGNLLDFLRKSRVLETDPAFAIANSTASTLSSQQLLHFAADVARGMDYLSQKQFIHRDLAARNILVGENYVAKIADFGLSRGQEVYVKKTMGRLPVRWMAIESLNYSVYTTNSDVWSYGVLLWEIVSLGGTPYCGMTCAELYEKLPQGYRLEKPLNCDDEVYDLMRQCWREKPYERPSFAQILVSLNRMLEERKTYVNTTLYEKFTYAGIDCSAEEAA

Row | pIC50 (RAF) | Compound | further results
1 | 5.37 | c1cc2c(cc1CNc1nc(N3CCOCC3)nc3sc4c(c13)CCCC4)OCO2 | 
2 | 5.28 | Cc1sc2nc(N3CCOCC3)nc(NCc3ccc4c(c3)OCO4)c2c1C | 
3 |  | Cc1cc2c(NCc3ccc4c(c3)OCO4)nc(-n3ccnc3)nc2s1 [Example 2, 2-(imidazol-1-yl)-6-methyl-4-(3,4-methylenedioxybenzylamino)thieno[2,3-d]pyrimidine] | melting point: 248 to 250 °C
4 |  | c1cnn(-c2nc(NCc3ccc4c(c3)OCO4)c3c4c(sc3n2)CCCC4)c1 | pIC50 (TIE-2): 6.82
